Results reported in patent US20120308663A1, “LIPID NANOCAPSULES, METHOD FOR PREPARING SAME AND USE THEREOF AS A DRUG” (priority 2009, published 2012).

Tests used:
mice = conditions: in mice, intravenously; cited from earlier work
rats = conditions: in rats; cited from earlier work
HT-29 cells = format: cell-based
Experimental: The IC50 was calculated as being the concentration of SN38-LNCs, of SN38 or unloaded LNCs causing 50% cell death.

polyethyleneglycol-660 2-hydroxystearate [Solutol® HS 15]
DL50 (mice): > 3.16 g/kg

CCOCCOCCO [Transcutol®HP, diethyleneglycol monoethyl ether]
DL50 (rats): > 5 g/kg

CCc1c2c(nc3ccc(O)cc13)-c1cc3c(c(=O)n1C2)COC(=O)[C@]3(O)CC [free SN38, 7-ethyl-10-hydroxycamptothecin]
Cytotoxicity relative to CPT11 (times greater) (HT-29 cells): approximately 250 times
